Results as given in patent EP1577294A1, “S-SUBSTITUTED N-1- (HETERO)ARYL ALKYL-N - (HETERO)ARYL ALKYLYSOTHIOCARBAMIDES, METHOD FOR THE PRODUCTION THEREOF, PHYSIOLOGICALLY ACTIVE S-SUBSTITUTED N-1- (HETERO )ARYL ALKYL-N - (HETERO)ARYL ALKYLYSOTHIOCARBAMIDES,A PHARMACEUTICAL COMPOUND AND CURING METHOD” (Institut Fiziologicheski Aktivnykh Veschestv Rossiyskov …, priority 2002, dated 2004).
Blank lines part the entries; values can stand above or below the molecule they belong to.

How the values were obtained:
NMDA receptors = assay: Patch-clamp: blockade of NMDA-induced currents in cerebral cortex neurons; format: cell-based, rat; conditions: for Blockade of NMDA-induced currents (%): neurons of the cerebral cortex
Description: (§1) The first was to determine the potentiating effect of new compounds on AMPA- and kainate-induced transmembrane currents in neurons of the Purkinje cerebellum of rats, and also blockade of NMDA-induced currents in the neurons of the cerebral cortex of rats;
(§2) Method for assessing properties of the compounds potentiating AMPA/KA-induced currents and blocking NMDA-induced currents.
(§3) Transmembrane currents were induced by activation of AMPA/KA receptors by applying solutions of kainic acid, the agonist of these receptors, and by activation of NMDA receptors by applying solutions of N-methyl-D-aspartic acid (NMDA), the agonist of these receptors, using the rapid superfusion method. Currents were recorded with the aid of borosilicate microelectrodes (resistance 1.5-2.5 mohm) filled with the following composition (in mM): KCl 100.0, EGTA 11.0, CaCl2 1.0, MgCl2 1.0, HEPES 10.0, ATP 5.0, pH 7.2.
(§4) An EPC9 (HEKA, Germany) was used for recording. Currents were recorded on a Pentium-100 PC hard disc using the Pulse program, also purchased from the HEKA company. The results were processed with the aid of the Pulsefit program (HEKA).

AMPA/KA receptors = assay: Patch-clamp: potentiation of kainate-induced transmembrane currents in freshly isolated Purkinje neurons; format: cell-based, rat; conditions: for Potentiation of kainate-induced currents (%): Purkinje neurons of the rat cerebellum
Experimental: as §1, §2
The experiments were performed using the patch-clamp method on freshly-isolated Purkinje neurons taken from the cerebellum of rats (aged 14-16 days). A modified method was used for isolation. Slices of cerebellum 400-600 µm in thickness were placed in a thermostat-controlled chamber with a volume of 10 ml. The solution for isolation had the following composition (in mM): NaCl 150.0, KCl 5.0, CaCl2 2.0, MgSO4×7H2O 2.0, HEPES 10.0, glucose 15.0, pH 7.42. The slices were incubated in this solution for 60 minutes, after which this solution was replaced by a similar solution containing pronase (2 mg/ml) and collagenase (1 mg/ml) and incubation was continued for 70 minutes. After washing with the original solution for 20 minutes, the slices were placed in a Petri dish and dissociated mechanically with the aid of a Pasteur pipette. The solutions were continuously bubbled with 100% O2 at t° 34°C. The Purkinje neurons were placed in a working chamber with a volume of 0.6 ml. The working solution has the composition (in mM): NaCl 150.0, KCl 5.0, CaCl2 2.6, MgSO4×7H2O 2.0, HEPES 10.0, glucose 15.0, pH 7.36.
as §3, §4
The application of kainate induces inward transmembrane currents in the Purkinje neurons. Addition of the compounds to the perfusion solution elicits an increase in the amplitude of the currents. This increase depends on the compound, on its concentration, and on the time which has passed since the start of application of the substance.

Structure (SMILES): CSC(=NCc1ccccc1)NCc1ccccc1 [Compound 11, S-Methyl-N-benzyl-N'-benzylisothio-carbamide]
Blockade of NMDA-induced currents (%) (NMDA receptors; at 0.5-30 µM): 0 at 0.5-30 µM %
Potentiation of kainate-induced currents (%) (AMPA/KA receptors; at 0.5-30 µM): 0 at 0.5-30 µM %

Structure (SMILES): CCSC(=NCc1ccccc1)NCc1ccccc1.I [Compound 12, S-Ethyl-N-benzyl-N'-benzylisothiocarbamide hydriodide]
Blockade of NMDA-induced currents (%) (NMDA receptors; at 0.5-30 µM): 0 at 0.5-30 µM %
Potentiation of kainate-induced currents (%) (AMPA/KA receptors; at 0.5-30 µM): 0 at 0.5-30 µM %

Structure (SMILES): c1ccc(CN=C(NCc2ccccc2)SCc2ccccc2)cc1 [Compound 13, S-Benzyl-N-benzyl-N'-benzylisothiocarbamide]
Blockade of NMDA-induced currents (%) (NMDA receptors; at 0.5-30 µM): 0 at 0.5-30 µM %
Potentiation of kainate-induced currents (%) (AMPA/KA receptors; at 0.5-30 µM): 0 at 0.5-30 µM %

Structure (SMILES): Cl.O=[N+]([O-])c1ccc(CSC(=NCc2ccccc2)NCc2ccccc2)cc1 [Compound 14, S-4-Nitrobenzyl-N-benzyl-N'-benzylisothiocarbamide hydrochloride]
Blockade of NMDA-induced currents (%) (NMDA receptors; at 0.5-30 µM): 0 at 0.5-30 µM %
Potentiation of kainate-induced currents (%) (AMPA/KA receptors; at 0.5-30 µM): 0 at 0.5-30 µM %

Structure (SMILES): NS(=O)(=O)c1cc2c(cc1Cl)NC(C1CC3C=CC1C3)NS2(=O)=O (stereo not shown) [Cyclothiazide, reference compound]
Blockade of NMDA-induced currents (%) (NMDA receptors; at 1-30 µM): 0 at 1-30 µM %
Potentiation of kainate-induced currents (%) (AMPA/KA receptors; at 1 µM): 20% at 1 µM

Structure (SMILES): CC12CC3CC(C)(C1)CC(N)(C3)C2 [Memantine, reference compound]
Blockade of NMDA-induced currents (%) (NMDA receptors; at 17 µM): 50% at 17 µM
Potentiation of kainate-induced currents (%) (AMPA/KA receptors; at 30 µM): 15% at 30 µM

Structure (SMILES): Nc1c2c(nc3ccccc13)CCCC2 [Tacrine, reference compound]
Blockade of NMDA-induced currents (%) (NMDA receptors; at 0.5-30 µM): 0 at 0.5-30 µM %
Potentiation of kainate-induced currents (%) (AMPA/KA receptors; at 0.5-30 µM): 0 at 0.5-30 µM %

The next lines start with the values.

Blockade of NMDA-induced currents (%) (NMDA receptors; at 0.5-30 µM): 0 at 0.5-30 µM %
Potentiation of kainate-induced currents (%) (AMPA/KA receptors; at 0.5-30 µM): 0 at 0.5-30 µM %
Structure (SMILES): Br.O=C(O)c1ccc(CSC(=NCc2ccccc2)NCc2ccccc2)cc1 [Compound 15, S-4-Carboxybenzyl-N-benzyl-N'-benzylisothiocarbamide hydrobromide]

Blockade of NMDA-induced currents (%) (NMDA receptors; at 0.5-30 µM): 0 at 0.5-30 µM %
Potentiation of kainate-induced currents (%) (AMPA/KA receptors; at 0.5-30 µM): 0 at 0.5-30 µM %
Structure (SMILES): Br.C=CCSC(=NCc1ccccc1)NCc1ccccc1 [Compound 16, S-Allyl-N-benzyl-N'-benzylisothiocarbamide hydrobromide]

Blockade of NMDA-induced currents (%) (NMDA receptors; at 0.5 µM): 30-50%
Blockade of NMDA-induced currents (%) (NMDA receptors; at 2 µM): 100%
Potentiation of kainate-induced currents (%) (AMPA/KA receptors; at 10 µM): 0% at 10 µM
Potentiation of kainate-induced currents (%) (AMPA/KA receptors; at 0.5-1.0 µM): 60-100% at 0.5-1.0 µM
Structure (SMILES): Br.C1=CC(SC(=NCc2ccccc2)NCc2ccccc2)CCC1 (stereo not shown) [Compound 17, S-2-Cyclohexenyl-N-benzyl-N'-benzylisothiocarbamide hydrobromide]

decrease in the NMDA-induced currents (NMDA receptors; 3 µM, observed range (average given separately)): 25-35%
Washing out time that returns the amplitude of the NMDA-induced currents to the control value (NMDA receptors; NMDA-induced currents, cerebral cortex neurons): 3 to 6 min
Blockade of NMDA-induced currents (%) (NMDA receptors; at 3 µM (average), hydrobromide): 30% at 3 µM,
Blockade of NMDA-induced currents (%) (NMDA receptors; at 3 µM (average), listed as compound 18, hydrobromide): 30%
Blockade of NMDA-induced currents (%) (NMDA receptors; at 10 µM, hydrobromide): 100% at 10 µM
Blockade of NMDA-induced currents (%) (NMDA receptors; at 10 µM, listed as compound 18, hydrobromide): 100%
increase in kainate-induced currents (AMPA/KA receptors; 20 µM, observed range (average given separately)): 8-12%
Potentiation of kainate-induced currents (%) (AMPA/KA receptors; at 20 µM (average), hydrobromide): 10% at 20 µM
Potentiation of kainate-induced currents (%) (AMPA/KA receptors; at 20 µM (average), listed as compound 18, hydrobromide): 10%
Washing out time that returns the amplitude of the responses to the control value (AMPA/KA receptors; kainate-induced currents, after 20 µM): 3 to 5 min
Structure (SMILES): Br.c1ccc(CCSC(=NCc2ccccc2)NCc2ccccc2)cc1 [Compound 18, S-2-Phenylethyl-N-benzyl-N'-benzylisothiocarbamide hydrobromide]

Blockade of NMDA-induced currents (%) (NMDA receptors; at 0.5-30 µM): 0 at 0.5-30 µM %
Potentiation of kainate-induced currents (%) (AMPA/KA receptors; at 0.5-30 µM): 0 at 0.5-30 µM %
Structure (SMILES): Br.CCOC(=O)CCSC(=NCc1ccccc1)NCc1ccccc1 [Compound 19, S-2-Ethoxycarbonyl-ethyl-N-benzyl-N'-benzylisothiocarbamide hydrobromide]
